Source: ChEMBL document CHEMBL1201862, “PubChem BioAssay data set” (2004)
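96-well plates; 48 h exposure; 5 concentrations. Endpoints by linear interpolation between flanking doses. Not reached: highest tested concentration assigned. GI50: concentration for 50% inhibition of growth.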 Active and inactive are the calls of the source. Rule as the data show it: active = GI50 up to about 1.1 µM and inactive = higher.

Assays:
Experiment in all cases: growth of human tumour cells (NCI), 48 h
MOLT-4 = tested on: MOLT-4
UACC-62 = tested on: UACC-62
NCI-H23 = tested on: NCI-H23
HCT-116 = tested on: HCT-116
A498 = tested on: A498
SF-295 = tested on: SF-295
NCI/ADR-RES = tested on: NCI/ADR-RES
HCT-15 = tested on: HCT-15
SK-MEL-5 = tested on: SK-MEL-5
Malme-3M = tested on: Malme-3M
RXF 393 = tested on: RXF 393
SW-620 = tested on: SW-620
MDA-MB-435 = tested on: MDA-MB-435
CAKI-1 = tested on: CAKI-1
KM12 = tested on: KM12
NCI-H226 = tested on: NCI-H226
UO-31 = tested on: UO-31
EKVX = tested on: EKVX
SR = tested on: SR
ACHN = tested on: ACHN

Measured: GI50

OCCCNCc1ccncc1
> 100 µM: HCT-15
inactive: MOLT-4 > 100 µM | UACC-62 > 100 µM | NCI-H23 > 100 µM | HCT-116 > 100 µM | A498 > 100 µM | SF-295 > 100 µM | NCI/ADR-RES > 100 µM | SK-MEL-5 > 100 µM | Malme-3M > 100 µM | RXF 393 > 100 µM | SW-620 > 100 µM | MDA-MB-435 > 100 µM | CAKI-1 > 100 µM | KM12 > 100 µM | NCI-H226 > 100 µM | UO-31 > 100 µM | EKVX > 100 µM | SR > 100 µM | ACHN > 100 µM

Cn1ncc(NCCn2cnc3c2c(=O)n(C)c(=O)n3C)c(Cl)c1=O
> 100 µM: HCT-15
inactive: MOLT-4 > 100 µM | UACC-62 > 100 µM | NCI-H23 > 100 µM | HCT-116 > 100 µM | A498 > 100 µM | SF-295 > 100 µM | NCI/ADR-RES > 100 µM | SK-MEL-5 > 100 µM | Malme-3M > 100 µM | RXF 393 > 100 µM | SW-620 > 100 µM | MDA-MB-435 > 100 µM | CAKI-1 > 100 µM | KM12 > 100 µM | NCI-H226 > 100 µM | UO-31 > 100 µM | EKVX > 100 µM | SR > 100 µM | ACHN > 100 µM

NC(=S)Nc1nc(=S)[nH]c2c1SC1=N/C(=C\c3ccco3)C(=O)N12
48.8 µM: HCT-15
inactive: MOLT-4 44.1 µM | UACC-62 > 100 µM | NCI-H23 > 100 µM | HCT-116 > 96.2 µM | A498 > 100 µM | SF-295 > 100 µM | NCI/ADR-RES > 100 µM | SK-MEL-5 > 82.8 µM | Malme-3M 44.7 µM | RXF 393 > 100 µM | SW-620 > 100 µM | MDA-MB-435 > 100 µM | CAKI-1 > 82.4 µM | KM12 98.6 µM | NCI-H226 > 47.8 µM | UO-31 > 100 µM | EKVX 59 µM | SR 21.1 µM | ACHN > 100 µM

CCCC(=O)N1CCN(c2ccc3c(c2)OC(C)O3)CC1 (stereo not given)
inactive: MOLT-4 > 100 µM | UACC-62 > 100 µM | NCI-H23 > 100 µM | HCT-116 > 100 µM | A498 > 100 µM | SF-295 > 100 µM | NCI/ADR-RES > 100 µM | SK-MEL-5 > 100 µM | Malme-3M > 100 µM | RXF 393 > 100 µM | SW-620 > 100 µM | MDA-MB-435 > 100 µM | CAKI-1 > 100 µM | KM12 > 100 µM | NCI-H226 > 100 µM | UO-31 > 100 µM | EKVX > 100 µM | SR > 100 µM | ACHN > 100 µM
> 100 µM: HCT-15

O=C(N/N=C\c1ccc([N+](=O)[O-])s1)c1ccncc1
inactive: MOLT-4 19.9 µM | UACC-62 10.7 µM | NCI-H23 16.2 µM | HCT-116 5.07 µM | A498 23.4 µM | SF-295 16.4 µM | NCI/ADR-RES 22.8 µM | SK-MEL-5 3.25 µM | Malme-3M 8.18 µM | RXF 393 16.9 µM | SW-620 10.8 µM | MDA-MB-435 18.4 µM | CAKI-1 27.9 µM | KM12 10 µM | NCI-H226 5.15 µM | UO-31 17.2 µM | EKVX 20.7 µM | SR 5.65 µM | ACHN 18.3 µM
5.27 µM: HCT-15

CC(=O)N1C(CCc2ccccc2)CC(C)(C=O)C1Cc1ccc(O[Si](C(C)C)(C(C)C)C(C)C)cc1 (stereo not given)
active: MOLT-4 1.06 µM
inactive: UACC-62 4.68 µM | NCI-H23 5.53 µM | HCT-116 2.55 µM | A498 2.87 µM | SF-295 5.11 µM | NCI/ADR-RES 8.81 µM | SK-MEL-5 3.4 µM | Malme-3M 14.2 µM | RXF 393 1.69 µM | SW-620 3.21 µM | MDA-MB-435 2.63 µM | CAKI-1 3.05 µM | KM12 3.02 µM | NCI-H226 6.76 µM | UO-31 3.21 µM | EKVX 4.75 µM | SR 2.09 µM | ACHN 6.89 µM
3.03 µM: HCT-15

Cc1ccc(SCN2CCCCC2)cc1.O=C(Cl)c1ccc([N+](=O)[O-])cc1
inactive: MOLT-4 3.37 µM | UACC-62 13.7 µM | NCI-H23 8.22 µM | HCT-116 10.9 µM | A498 2.76 µM | SF-295 16 µM | NCI/ADR-RES 14 µM | SK-MEL-5 2.78 µM | Malme-3M 13.1 µM | RXF 393 6.15 µM | SW-620 18.5 µM | MDA-MB-435 10.1 µM | CAKI-1 8.87 µM | KM12 10.8 µM | NCI-H226 16.6 µM | UO-31 15.2 µM | EKVX 11.8 µM | SR 4.24 µM | ACHN 12.6 µM
9.77 µM: HCT-15

O=S(=O)(NC1OCCCC1I)c1ccccc1 (stereo not given)
> 100 µM: HCT-15
inactive: MOLT-4 > 100 µM | UACC-62 > 100 µM | NCI-H23 > 100 µM | HCT-116 > 100 µM | A498 > 100 µM | SF-295 > 100 µM | NCI/ADR-RES > 100 µM | SK-MEL-5 > 100 µM | Malme-3M > 100 µM | RXF 393 > 100 µM | SW-620 > 100 µM | MDA-MB-435 > 100 µM | CAKI-1 > 100 µM | KM12 > 100 µM | NCI-H226 > 100 µM | UO-31 > 100 µM | EKVX > 100 µM | SR > 100 µM | ACHN > 100 µM

C=C1CC2(C[C@@H](c3ccccc3)O[C@@H](c3ccccc3)C2)OC1=O (stereo not given in full)
inactive: MOLT-4 1.95 µM | UACC-62 2.51 µM | NCI-H23 2.64 µM | HCT-116 1.9 µM | A498 9.95 µM | SF-295 13.6 µM | NCI/ADR-RES 3.06 µM | SK-MEL-5 3.01 µM | Malme-3M 1.89 µM | RXF 393 1.94 µM | SW-620 1.67 µM | MDA-MB-435 2.99 µM | CAKI-1 1.97 µM | KM12 4.39 µM | NCI-H226 16 µM | UO-31 6.24 µM | EKVX 13 µM | SR 2.3 µM | ACHN 2.88 µM
2.54 µM: HCT-15
